Assay [1] concerns human monocyte stimulated cytokine production (TNF-α). Briefly: Monocyte assay (LPS-stimulated TNF-α production). In kind it is cell-based. The settings on record: 24 h, 200 ng/mL LPS, TNF-α by ELISA. Summed up: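 Human CD14+ monocytes were purified from blood and plated at 1×10^6 cells/mL in RPMI 1640 with 10% FBS. Compound was added 30 min before stimulation with 200 ng/mL LPS (0.1% DMSO final), followed by 24 hrs at 37 C. Supernatant TNF-α was measured by ELISA, and viability by trypan blue exclusion.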

Assay [2] deals with T1, Recombinant human IKKβ (residues 1-737) (Homo sapiens, UniProt O14920).
T1 construct: Recombinant human IKKβ (residues 1-737); GST (C); made in house
T1 sequence (O14920 1-737): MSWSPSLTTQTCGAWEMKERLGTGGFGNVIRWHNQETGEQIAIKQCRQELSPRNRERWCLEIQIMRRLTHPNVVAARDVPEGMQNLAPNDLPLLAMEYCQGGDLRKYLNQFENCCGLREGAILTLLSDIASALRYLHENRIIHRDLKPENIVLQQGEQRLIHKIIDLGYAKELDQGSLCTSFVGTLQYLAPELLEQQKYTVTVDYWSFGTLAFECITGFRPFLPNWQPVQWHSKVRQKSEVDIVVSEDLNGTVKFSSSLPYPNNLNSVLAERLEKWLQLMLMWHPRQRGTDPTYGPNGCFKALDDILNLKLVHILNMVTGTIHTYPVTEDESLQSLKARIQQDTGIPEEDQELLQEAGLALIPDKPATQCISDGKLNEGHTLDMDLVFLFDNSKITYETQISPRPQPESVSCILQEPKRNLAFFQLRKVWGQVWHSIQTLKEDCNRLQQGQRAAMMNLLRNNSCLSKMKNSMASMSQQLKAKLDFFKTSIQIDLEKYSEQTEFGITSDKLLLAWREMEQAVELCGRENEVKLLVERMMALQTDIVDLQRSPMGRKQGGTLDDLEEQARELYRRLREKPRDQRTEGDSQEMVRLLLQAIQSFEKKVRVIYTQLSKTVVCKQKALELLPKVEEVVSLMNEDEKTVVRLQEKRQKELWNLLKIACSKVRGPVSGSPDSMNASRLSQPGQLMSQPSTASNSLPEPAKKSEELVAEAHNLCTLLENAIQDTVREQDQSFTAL
As to the kind of experiment: IKK2 assay (TR-FRET). The format is biochemical. The settings on record: ATP 1 μM final, read-out: pIC50 against IKK2 (converted). In outline:
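Baculovirus-expressed C-terminal GST-tagged IKKβ (0.5-5 nM final) in HEPES pH 7.4, MgCl2, CHAPS, DTT, BSA with 1.7% DMSO; 25 nM GST-IB substrate and 1 μM ATP, 15 min at room temperature. EDTA stop; phospho-Ser32/36 detected by Eu-antibody/APC-anti-GST TR-FRET, 665/620 nm ratio.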
A general note: In TR-FRET formats the signal depends on donor and acceptor labels being close together.

Counter-ions that a name gives are not always drawn. A value given as a limit tells only on which side of the number the result lay.

For `CCS(=O)(=O)N1CCC(c2c[nH]c3c(C(N)=O)cc(-c4ccc(CNC(=O)C5CCCC5)cc4)cc23)CC1` [Example 130, 5-(4-{[(cyclopentylcarbonyl)amino]methyl}phenyl)-3-[1-(ethylsulfonyl)-4-piperidinyl]-1H-indole-7-carboxamide], the values for the IC50 in assay [1] and in assay [2] were not above 1.5 µM and not above 10 µM, respectively.
The matching figures for `CCS(=O)(=O)N1CCC(c2c[nH]c3c(C(N)=O)cc(-c4ccc(CNC(=O)c5ccco5)cc4)cc23)CC1` [Example 131, 3-[1-(ethylsulfonyl)-4-piperidinyl]-5-(4-{[(2-furanylcarbonyl)amino]methyl}phenyl)-1H-indole-7-carboxamide]: not above 1.5 µM and not above 10 µM.
In the case of `CCS(=O)(=O)N1CCC(c2c[nH]c3c(C(N)=O)cc(-c4ccc(CCNC(=O)C5CCC5)cc4)cc23)CC1` [Example 132, 5-(4-{2-[(cyclobutylcarbonyl)amino]ethyl}phenyl)-3-[1-(ethylsulfonyl)-4-piperidinyl]-1H-indole-7-carboxamide], the IC50 in assay [1] was more than 1 µM; in assay [2] it was not above 10 µM.
As for `CCS(=O)(=O)N1CCC(c2c[nH]c3c(C(N)=O)cc(-c4ccc(CCNC(=O)C5CCCCC5)cc4)cc23)CC1` [Example 133, 5-(4-{2-[(cyclohexylcarbonyl)amino]ethyl}phenyl)-3-[1-(ethylsulfonyl)-4-piperidinyl]-1H-indole-7-carboxamide], the IC50 in assay [1] is more than 1 µM; in assay [2], not above 10 µM.
The matching figures for `CCS(=O)(=O)N1CCC(c2c[nH]c3c(C(N)=O)cc(-c4cccc(CCNC(=O)C5CCCCC5)c4)cc23)CC1` [Example 134, 5-(3-{2-[(cyclohexylcarbonyl)amino]ethyl}phenyl)-3-[1-(ethylsulfonyl)-4-piperidinyl]-1H-indole-7-carboxamide]: more than 1 µM and not above 10 µM.
As to `CCN1CCN(c2ccc(-c3cc(C(N)=O)c4[nH]cc(C5CCN(S(=O)(=O)CC)CC5)c4c3)cn2)CC1` [Example 136, 5-[6-(4-ethyl-1-piperazinyl)-3-pyridinyl]-3-[1-(ethylsulfonyl)-4-piperidinyl]-1H-indole-7-carboxamide trifluoroacetate], the IC50 is more than 1 µM in assay [1] and not above 10 µM in assay [2].
Consider `CCS(=O)(=O)N1CCC(c2c[nH]c3c(C(N)=O)cc(-c4ccc(CNC)cc4)cc23)CC1` [Example 139, 3-[1-(ethylsulfonyl)-4-piperidinyl]-5-{4-[(methylamino)methyl]phenyl}-1H-indole-7-carboxamide trifluoroacetate], for which the IC50 is not above 1.5 µM in assay [1] and not above 10 µM in assay [2].
Consider `CCS(=O)(=O)N1CCC(c2c[nH]c3c(C(N)=O)cc(-c4ccc(CNC(C)C)cc4)cc23)CC1` [Example 140, 3-[1-(ethylsulfonyl)-4-piperidinyl]-5-(4-{[(1-methylethyl)amino]methyl}phenyl)-1H-indole-7-carboxamide], for which the IC50 is more than 1 µM in assay [1] and not above 10 µM in assay [2].
The matching figures for `CCCNCc1ccc(-c2cc(C(N)=O)c3[nH]cc(C4CCN(S(=O)(=O)CC)CC4)c3c2)cc1` [Example 141, 3-[1-(ethylsulfonyl)-4-piperidinyl]-5-{4-[(propylamino)methyl]phenyl}-1H-indole-7-carboxamide trifluoroacetate]: not above 1.5 µM and not above 10 µM.
With `CCS(=O)(=O)N1CCC(c2c[nH]c3c(C(N)=O)cc(-c4ccc(CNC5CCCC5)cc4)cc23)CC1` [Example 143, 5-{4-[(cyclopentylamino)methyl]phenyl}-3-[1-(ethylsulfonyl)-4-piperidinyl]-1H-indole-7-carboxamide trifluoroacetate], the values for the IC50 in assay [1] and in assay [2] were more than 1 µM and not above 10 µM, respectively.
For `CCS(=O)(=O)N1CCC(c2c[nH]c3c(C(N)=O)cc(-c4ccc(CNC5CCC5)cc4)cc23)CC1` [Example 144, 5-{4-[(cyclobutylamino)methyl]phenyl}-3-[1-(ethylsulfonyl)-4-piperidinyl]-1H-indole-7-carboxamide], the results for the IC50 in assay [1] and in assay [2] were not above 1.5 µM and not above 10 µM, respectively.
The matching figures for `CCS(=O)(=O)N1CCC(c2c[nH]c3c(C(N)=O)cc(-c4ccc(CN(C)C)cc4)cc23)CC1` [Example 146, 5-{4-[(dimethylamino)methyl]phenyl}-3-[1-(ethylsulfonyl)-4-piperidinyl]-1H-indole-7-carboxamide]: more than 1 µM and not above 10 µM.
The matching figures for `CCN(CC)Cc1ccc(-c2cc(C(N)=O)c3[nH]cc(C4CCN(S(=O)(=O)CC)CC4)c3c2)cc1` [Example 147, 5-{4-[(diethylamino)methyl]phenyl}-3-[1-(ethylsulfonyl)-4-piperidinyl]-1H-indole-7-carboxamide]: more than 1 µM and not above 10 µM.
The matching figures for `CCS(=O)(=O)N1CCC(c2c[nH]c3c(C(N)=O)cc(-c4ccc(CN[C@H](C)CO)cc4)cc23)CC1` [Example 151, 3-[1-(ethylsulfonyl)-4-piperidinyl]-5-[4-({[(1R)-2-hydroxy-1-methylethyl]amino}methyl)phenyl]-1H-indole-7-carboxamide trifluoroacetate]: not above 1.5 µM and not above 10 µM.
For `CCS(=O)(=O)N1CCC(c2c[nH]c3c(C(N)=O)cc(-c4ccc(CNC(CO)CO)cc4)cc23)CC1` [Example 153, 3-[1-(ethylsulfonyl)-4-piperidinyl]-5-[4-({[2-hydroxy-1-(hydroxymethyl)ethyl]amino}methyl)phenyl]-1H-indole-7-carboxamide trifluoroacetate], the figures for the IC50 in assay [1] and in assay [2] were more than 1 µM and not above 10 µM, respectively.
Turning to `CCCC(C)NCc1cccc(-c2cc(C(N)=O)c3[nH]cc(C4CCN(S(=O)(=O)CC)CC4)c3c2)c1` (centres unmarked) [Example 154, 3-[1-(ethylsulfonyl)-4-piperidinyl]-5-(3-{[(1-methylbutyl)amino]methyl}phenyl)-1H-indole-7-carboxamide trifluoroacetate], the IC50 is not above 1.5 µM in assay [1] and not above 10 µM in assay [2].
The matching figures for `CC[C@@H](C)NCc1cccc(-c2cc(C(N)=O)c3[nH]cc(C4CCN(S(=O)(=O)CC)CC4)c3c2)c1` [Example 155, 3-[1-(ethylsulfonyl)-4-piperidinyl]-5-[3-({[(1R)-1-methylpropyl]amino}methyl)phenyl]-1H-indole-7-carboxamide trifluoroacetate]: not above 1.5 µM and not above 10 µM.
The matching figures for `CCS(=O)(=O)N1CCC(c2c[nH]c3c(C(N)=O)cc(-c4cccc(CNCC(C)C)c4)cc23)CC1` [Example 156, 3-[1-(ethylsulfonyl)-4-piperidinyl]-5-(3-{[(2-methylpropyl)amino]methyl}phenyl)-1H-indole-7-carboxamide]: not above 1.5 µM and not above 10 µM.
The matching figures for `CC[C@H](C)NCc1cccc(-c2cc(C(N)=O)c3[nH]cc(C4CCN(S(=O)(=O)CC)CC4)c3c2)c1` [Example 157, 3-[1-(ethylsulfonyl)-4-piperidinyl]-5-[3-({[(1S)-1-methylpropyl]amino}methyl)phenyl]-1H-indole-7-carboxamide acetate]: not above 1.5 µM and not above 10 µM.
For `CCS(=O)(=O)N1CCC(c2c[nH]c3c(C(N)=O)cc(-c4ccc(CNC(=O)C5CC5)cc4)cc23)CC1` [Example 158, 5-(4-{[(cyclopropylcarbonyl)amino]methyl}phenyl)-3-[1-(ethylsulfonyl)-4-piperidinyl]-1H-indole-7-carboxamide], the figures for the IC50 in assay [1] and in assay [2] were more than 1 µM and not above 10 µM, respectively.
The matching figures for `CCS(=O)(=O)N1CCC(c2c[nH]c3c(C(N)=O)cc(-c4ccc(CNC(=O)C5CCC5)cc4)cc23)CC1` [Example 159, 5-(4-{[(cyclobutylcarbonyl)amino]methyl}phenyl)-3-[1-(ethylsulfonyl)-4-piperidinyl]-1H-indole-7-carboxamide]: more than 1 µM and not above 10 µM.
The matching figures for `CCS(=O)(=O)N1CCC(c2c[nH]c3c(C(N)=O)cc(-c4ccc(CNC(=O)Cc5cccs5)cc4)cc23)CC1` [Example 160, 3-[1-(ethylsulfonyl)-4-piperidinyl]-5-(4-{[(2-thienylacetyl)amino]methyl}phenyl)-1H-indole-7-carboxamide]: not above 1.5 µM and not above 10 µM.

For the origin of these results see patent publication US8063071B2 (GlaxoSmithKline, LLC, priority 2007, dated 2011).
